According to publication PMC2742306 (Molecular cell, 2009):
No end group written: not given here. βAla = NCCC(=O)O

How the values were obtained:
D320A DegS [1] = target: T1, D320A DegS (Escherichia coli, UniProt P0AEE3, D320A); assay type: biochemical, E. coli
wild-type DegS [2] = target: T2, wild-type DegS (Escherichia coli, UniProt P0AEE3); settings: saturating peptide, ref Sohn et al. (2007); cited from earlier work
K243D mutant of DegS [3] = target: T3, K243D mutant of DegS (Escherichia coli, UniProt P0AEE3, K243D); assay type: biochemical, E. coli
T3 sequence (P0AEE3 27-355 K243D): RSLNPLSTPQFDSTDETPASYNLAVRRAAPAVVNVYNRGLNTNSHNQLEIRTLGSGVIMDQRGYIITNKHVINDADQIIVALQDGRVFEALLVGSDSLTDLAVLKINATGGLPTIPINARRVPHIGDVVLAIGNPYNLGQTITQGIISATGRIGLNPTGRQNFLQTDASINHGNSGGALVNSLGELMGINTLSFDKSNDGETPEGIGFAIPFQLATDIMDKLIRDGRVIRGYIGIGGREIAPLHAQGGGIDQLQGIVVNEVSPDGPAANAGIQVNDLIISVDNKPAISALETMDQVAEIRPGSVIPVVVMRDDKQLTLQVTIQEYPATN

D320A DegS [4] = target: T1, D320A DegS; assay: OMP-peptide activation of RseA cleavage by D320A DegS; assay type: biochemical, E. coli
D320A DegS [5] = target: T1, D320A DegS; assay: Global fit to MWC allosteric model, D320A DegS; assay type: biochemical, E. coli; settings: D320A, MWC global fit
[6] = target: K243D/D320A mutant of DegS (Escherichia coli, UniProt P0AEE3, D320A/K243D); assay type: biochemical, E. coli
K243D/D320A mutant of DegS, sequence (P0AEE3 27-355 K243D/D320A): as the sequence (P0AEE3 27-355 K243D) above, with D294A counted along it

K243D mutant of DegS [7] = target: T3, K243D mutant of DegS; assay: Global fit to MWC allosteric model, K243D DegS; assay type: biochemical, E. coli; settings: K243D, MWC global fit
wild-type DegS [8] = target: T2, wild-type DegS; settings: 200 μM RseA, ref Sohn et al. (2007); cited from earlier work
[9] = target: K243D/M319A double mutant of DegS (Escherichia coli, UniProt P0AEE3, K243D/M319A); assay type: biochemical, E. coli; settings: saturating peptide
wild-type DegS [10] = target: T2, wild-type DegS; assay type: biochemical, E. coli
wild-type DegS [11] = target: T2, wild-type DegS; assay type: biochemical, E. coli; settings: wild-type DegS 0.9 μM trimer; 20 μM rhodamine-FP; saturating peptide
DegS and its mutants = assay: Global fit to MWC allosteric model, RseA substrate binding; assay type: biochemical, E. coli
[12] = target: T4, DegS M319A (residues 27–355, N-terminal His6 tag) (E. coli, UniProt P0AEE3 27-355, M319A); assay: fluorescence polarisation
T4 sequence (looked up): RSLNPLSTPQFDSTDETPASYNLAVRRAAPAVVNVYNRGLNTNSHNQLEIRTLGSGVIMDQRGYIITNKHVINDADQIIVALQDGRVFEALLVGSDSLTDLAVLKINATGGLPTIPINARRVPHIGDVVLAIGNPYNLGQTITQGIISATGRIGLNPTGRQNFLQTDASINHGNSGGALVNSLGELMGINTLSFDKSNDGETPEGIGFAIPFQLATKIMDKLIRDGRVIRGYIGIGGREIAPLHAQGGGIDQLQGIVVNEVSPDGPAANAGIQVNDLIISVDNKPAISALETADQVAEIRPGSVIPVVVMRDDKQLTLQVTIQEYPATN

[13] = target: T5, DegS K243D/M319A double mutant (residues 27–355, N-terminal His6 tag) (E. coli, UniProt P0AEE3 27-355, K243D | M319A); assay: fluorescence polarisation
T5 sequence (looked up): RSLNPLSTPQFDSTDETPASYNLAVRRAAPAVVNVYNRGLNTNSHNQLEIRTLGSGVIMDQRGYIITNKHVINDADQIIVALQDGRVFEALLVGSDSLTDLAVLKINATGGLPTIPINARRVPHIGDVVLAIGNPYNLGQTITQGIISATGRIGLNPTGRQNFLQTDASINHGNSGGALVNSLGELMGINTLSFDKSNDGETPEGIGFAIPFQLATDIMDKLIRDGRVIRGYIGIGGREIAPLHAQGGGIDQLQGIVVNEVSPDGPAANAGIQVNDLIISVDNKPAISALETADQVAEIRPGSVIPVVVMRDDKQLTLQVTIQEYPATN

[14] = enzyme parameter, peptide-independent
[15] = peptide preference for relaxed state
[16] = same value for all enzymes and peptides

T2 sequence (P0AEE3 27-355): as the sequence (P0AEE3 27-355 K243D) above, with D217K counted along it
T1 sequence (P0AEE3 27-355 D320A): as the sequence (P0AEE3 27-355 K243D) above, with D217K, D294A counted along it

Question: With DNRDGNVYYF [DNRDGNVYYF] as the molecule, how does the “Vmax (RseA cleavage)” value (D320A DegS [1]; D320A 0.3 μM trimer, saturating peptide (DNRDGNVYYF 30 μM), 23 °C, pH 8.3) read?
Answer: 2.5 ± 0.3 s^−1enz^−1

Question: And the “Hill Constant (RseA substrate)” value (D320A DegS [1]; D320A, saturating peptide)?
Answer: 1.1 ± 0.2

Question: What about the “Hill Constant (RseA substrate)” value (wild-type DegS [2]) of the same molecule?
Answer: 1.6 ± 0.2

Question: And the “Vmax (RseA cleavage)” value (wild-type DegS [2])?
Answer: 1.1 ± 0.2 s^−1enz^−1

Question: And the “Vmax (RseA cleavage)” value (K243D mutant of DegS [3]; K243D 0.3 μM trimer, saturating peptide (DNRDGNVYYF 30 μM), 23 °C, pH 8.3)?
Answer: 1.8 ± 0.2 s^−1enz^−1

Question: What about the “Hill Constant (RseA substrate)” value (K243D mutant of DegS [3]; K243D, saturating peptide) of the same molecule?
Answer: 1.3 ± 0.1

Question: What about the EC50 (D320A DegS [4]) of the same molecule?
Answer: 200 ± 100 nM

Question: What about the “KRS, dissociation constant of RseA substrate for R-state subunit” value (D320A DegS [5]; RseA, not peptide, binding) of the same molecule?
Answer: 150 µM

Question: What about the “KTS, dissociation constant of RseA substrate for T-state subunit” value (D320A DegS [5]; RseA, not peptide, binding) of the same molecule?
Answer: 505 µM

Question: What about the “L0, equilibrium constant T/R of unliganded enzyme” value (“L0, equilibrium constant T/R” for short) (D320A DegS [5]; [14]) of the same molecule?
Answer: 350

Question: And the KTP/KRP (D320A DegS [5]; [15])?
Answer: 3.3

Question: What about the “kr, rate constant for cleavage of RseA by substrate-bound R-state subunits” value (shortened to “kr … by substrate-bound R-state subunits”) (D320A DegS [5]; [16]) of the same molecule?
Answer: 3.3 s⁻¹

Question: And the “Vmax (RseA cleavage)” value ([6]; K243D/D320A 0.3 μM trimer, DNRDGNVYYF 30 μM, 23 °C, pH 8.3)?
Answer: 2.0 ± 0.3 s^−1enz^−1

Question: What about the “Hill Constant (RseA substrate)” value ([6]; K243D/D320A, saturating OMP peptide) of the same molecule?
Answer: 1.1 ± 0.1

Question: And the “KRS, dissociation constant of RseA substrate for R-state subunit” value (K243D mutant of DegS [7]; RseA, not peptide, binding)?
Answer: 150 µM

Question: And the “KTS, dissociation constant of RseA substrate for T-state subunit” value (K243D mutant of DegS [7]; RseA, not peptide, binding)?
Answer: 505 µM

Question: And the “L0, equilibrium constant T/R” value (K243D mutant of DegS [7]; [14])?
Answer: 180

Question: And the KTP/KRP (K243D mutant of DegS [7]; [15])?
Answer: 2.0

Question: And the “kr … by substrate-bound R-state subunits” value (K243D mutant of DegS [7]; [16])?
Answer: 3.3 s⁻¹

Question: And the “Hill Constant (peptide activation)” value (wild-type DegS [8])?
Answer: 1.8 ± 0.2

Question: And the “Hill Constant (RseA substrate)” value [9]?
Answer: 1.2 ± 0.1

Question: And the “Vmax (RseA cleavage)” value ([9]; 23 °C, pH 8.3)?
Answer: 1.4 ± 0.1 s^−1enz^−1

Question: What about the “L0, equilibrium constant T/R” value (wild-type DegS [10]; MWC global fit, enzyme parameter, peptide-independent) of the same molecule?
Answer: 15000

Question: And the KTP/KRP (wild-type DegS [10]; MWC global fit, peptide preference for relaxed state)?
Answer: 6.8

Question: What about the “kr … by substrate-bound R-state subunits” value (wild-type DegS [10]; MWC global fit, same value for all enzymes and peptides) of the same molecule?
Answer: 3.3 s⁻¹

Question: And the “DegS molecules in active conformation” value (wild-type DegS [10]; saturating peptide and saturating RseA substrate, MWC model)?
Answer: 45%

Question: What about the “rate of rhodamine-FP modification in presence of peptide (order)” value (wild-type DegS [11]) of the same molecule?
Answer: slower

B1: RseA: 35S-labeled variant of the periplasmic domain of E. coli RseA (residues 121–216) with a C-terminal His6 tag (protein)
chain: YNGQSETSQQPETPVFNTLPMMGKASPVSLGVPSEATANNGQQQQVQEQRRRINAMLQDYELQRRLHSEQLQFEQAQTQQAAVQVPGIQTLGTQSQ
modifications: 35S-labeled; left off: His6, C-terminal, state not stated
Question: Which “preference for relaxed state in substrate-saturated trimer” value (DegS and its mutants) does the source give for B1 here?
Answer: approximately 40 fold

Question: With {fluoresceine-βAla}-KKDNRDGNYYF [OMP peptide fluoresceine-β-alanine-KKDNRDGNYYF] as the molecule, how does the Kd [12] read?
Answer: 140 nM

Question: What about the Kd [13] of the same molecule?
Answer: 180 nM
